Tests used:
[1] = system: DSS-induced colitis in mice; test: Dextran sulfate sodium induced colitis: mouse model of inflammatory bowel disease; assay type: in vivo; details: for % of normal length: colon length; for Mean DAIWT ± SEM: DAI without weight loss parameter; for Mean DAI ± SEM: mice
[2] = target: T1, TXA2 receptor (Homo sapiens, UniProt P21731); test: TXA2 binding assay ([3H]SQ 29,548), human platelet-based; details: human platelets
T1 construct: from tissue; host or cells: human platelets
T1 sequence (P21731 1-343): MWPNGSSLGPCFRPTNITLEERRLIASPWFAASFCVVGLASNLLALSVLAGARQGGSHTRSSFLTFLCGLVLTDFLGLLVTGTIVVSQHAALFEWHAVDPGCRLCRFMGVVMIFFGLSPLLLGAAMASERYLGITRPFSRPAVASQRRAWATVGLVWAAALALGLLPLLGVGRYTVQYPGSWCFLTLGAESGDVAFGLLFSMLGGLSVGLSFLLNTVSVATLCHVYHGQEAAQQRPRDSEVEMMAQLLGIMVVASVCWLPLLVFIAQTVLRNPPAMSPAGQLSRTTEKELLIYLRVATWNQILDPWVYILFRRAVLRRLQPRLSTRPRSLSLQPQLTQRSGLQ
Description: The ability of 1-(3-hydroxy-4-methoxyphenyl)-4-methyl-5-ethyl-7,8-dimethoxy-5H-2,3-benzodiazepine to inhibit the binding of [^3H]SQ 29,548 (30-60 Ci/mmol) was determined via the human platelet-based assay of Hedberg et al., “Characterization of [^3H]SQ 29,548 as a High Affinity Radioligand Binding to Thromboxane A2—Receptors in Human Platelets.”, J. Pharmacol. Exp. Ther. 245: 786-792 (1988), with modifications. TXA2 is a very unstable molecule, thus a surrogate ligand of known affinity for the TXA2 receptor is required as a standard for determination of binding affinity of new potential TXA2 ligands. [^3H]SQ 29,548 is a ligand with known binding affinity for the TXA2 receptor. [^3H]SQ 29,548 has been employed as a TXA2 ligand in several published studies, is accepted as a TXA2 binding standard, and is thus useful as a standard in assessing the binding affinity of new compounds to the TXA2 receptor. […]
Reactions were carried out in a reaction mixture comprising 25 mM TRIS-HCl (pH 7.4) containing 138 mM NaCl, 5 mM KCl, 5 mM MgCl2, 5.5 mM dextrose, and 2 mM EDTA at 25° C. for 60 minutes. […] Radioactivity trapped onto the filters was determined and compared to control values in order to ascertain any interactions of test compound with the thromboxane A2 binding site.

[3] = target: T2, LTB4 receptor (Cavia porcellus, UniProt H0VYV8); test: Inhibition of [3H]LTB4 binding, guinea pig spleen membrane assay; details: 10 μM test compound; for inhibition at 10 µM: 1 nM [3H]LTB4, read-out: LTB4 % inhib @ 10 μm; for LTB4 % inhib @ 10 μm: 1 nM [3H]LTB4
T2 construct: 1.0 mg/mL of the Guinea pig spleen membrane preparation; from tissue; host or cells: guinea pig spleen membranes
Description: The ability of 1-(3-hydroxy-4-methoxyphenyl)-4-methyl-5-ethyl-7,8-dimethoxy-5H-2,3-benzodiazepine to inhibit [^3H]LTB4 binding to the LTB4 receptor was determined as follows using the guinea pig spleen membrane assay of Cheng et al., J. Pharmacol. Exp. Ther., 236(1), 126-132, 1986, the entire disclosure of which is incorporated herein by reference.
Reactions were carried out in a phosphate buffer (pH 7.4) containing NaCl, MgCl2, EDTA, and bacitracin. The reaction volume of 150 μL containing 1.0 mg/mL of the Guinea pig spleen membrane preparation and 1 nM [^3H]LTB4, with or without a candidate inhibitor, was incubated at 0-4° C. for 2 hours. Candidate inhibitors included the compounds listed in Table 1 and unlabeled LTB4 as a control. The reaction was terminated by rapid vacuum filtration onto glass fiber filters. The filter was washed with cold buffer, dried and placed in a scintillation vial. Radioactivity trapped onto the filters was determined and compared to control values in order to ascertain any interactions of the test compound with the LTB4 binding site.

[4] = system: aggression in mice; details: cited from earlier work
[5] = system: muricide in rats; details: cited from earlier work
[6] = system: anti-noradrenergic effects; details: cited from earlier work
[7] = system: central BZ receptors; details: cited from earlier work
[8] = target: peripheral BZ receptors (Homo sapiens, UniProt P30536); details: cited from earlier work
[9] = target: T1, TXA2 receptor; details: reference competitor in [3H]SQ 29,548 assay; cited from earlier work
[10] = system: narcosis in mice; details: cited from earlier work

T2 sequence (H0VYV8 1-348): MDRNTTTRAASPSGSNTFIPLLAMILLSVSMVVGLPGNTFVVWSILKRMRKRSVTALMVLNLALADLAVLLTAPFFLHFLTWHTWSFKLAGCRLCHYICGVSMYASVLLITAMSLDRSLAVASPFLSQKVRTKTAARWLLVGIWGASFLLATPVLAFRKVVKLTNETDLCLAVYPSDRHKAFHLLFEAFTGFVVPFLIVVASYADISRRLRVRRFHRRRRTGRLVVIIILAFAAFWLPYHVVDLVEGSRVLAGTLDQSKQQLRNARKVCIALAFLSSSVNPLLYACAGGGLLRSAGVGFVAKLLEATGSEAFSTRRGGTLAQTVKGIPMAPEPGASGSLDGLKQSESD
peripheral BZ receptors, sequence (P30536 whole entry): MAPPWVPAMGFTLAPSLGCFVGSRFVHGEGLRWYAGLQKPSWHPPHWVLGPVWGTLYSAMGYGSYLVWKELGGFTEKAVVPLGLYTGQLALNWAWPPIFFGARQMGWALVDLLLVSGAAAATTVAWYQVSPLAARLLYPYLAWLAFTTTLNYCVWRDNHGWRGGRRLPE

**Q.** For `O=C(O)c1cc(/N=N/c2ccc(S(=O)(=O)Nc3ccccn3)cc2)ccc1O` [Sulfasalazine, reference compound], which “Colon shortening inhib. %” value ([1]; 300 mg/kg IP daily + DSS) is on record?
**A.** 30%

**Q.** And the “Mean colon length CM ± SEM” value ([1]; 300 mg/kg IP daily + DSS)?
**A.** 8.8 ± 0.29 CM

**Q.** What about the “Mean weight (g) ± SEM Day 0” value ([1]; 300 mg/kg IP daily + DSS) of the same molecule?
**A.** 22.6 ± 0.2 g

**Q.** And the “% weight change ± SEM Day 7” value ([1]; 300 mg/kg IP daily + DSS)?
**A.** −0.6 ± 0.5%

**Q.** What about the “Mean weight (g) ± SEM Day 7” value ([1]; 300 mg/kg IP daily + DSS) of the same molecule?
**A.** 22.4 ± 0.2 g

**Q.** What about the “% weight change ± SEM Day 8” value ([1]; 300 mg/kg IP daily + DSS) of the same molecule?
**A.** −11.4 ± 1.4%

**Q.** What about the “Mean weight (g) ± SEM Day 8” value ([1]; 300 mg/kg IP daily + DSS) of the same molecule?
**A.** 20.0 ± 0.4 g

**Q.** What about the “% weight change ± SEM Day 9” value ([1]; 300 mg/kg IP daily + DSS) of the same molecule?
**A.** −17.7 ± 1.8%

**Q.** What about the “Mean weight (g) ± SEM Day 9” value ([1]; 300 mg/kg IP daily + DSS) of the same molecule?
**A.** 18.6 ± 0.4 g

**Q.** What about the “% of normal length” value ([1]; 300 mg/kg IP daily + DSS) of the same molecule?
**A.** 69.5%

**Q.** And the “weight loss as compared to the negative controls” value ([1]; 300 mg/kg daily + DSS)?
**A.** no observed significant difference

**Q.** What does the source list for `CCC1C(C)=NN=C(c2ccc(OC)c(O)c2)c2cc(OC)c(OC)cc21` (racemic) [Compound 4, 1-(3-hydroxy-4-methoxyphenyl)-4-methyl-5-ethyl-7,8-dimethoxy-5H-2,3-benzodiazepine]?
**A.** inhibition at 10 µM [2]: 25.9%; Mean colon length CM ± SEM ([1]; 16 mg/kg IP daily + DSS): 8.9 ± 0.40 CM; Mean weight (g) ± SEM Day 0 ([1]; 16 mg/kg IP daily + DSS): 24.6 ± 0.5 g; % weight change ± SEM Day 7 ([1]; 16 mg/kg IP daily + DSS): +0.5 ± 2.2%; Mean weight (g) ± SEM Day 7 ([1]; 16 mg/kg IP daily + DSS): 24.8 ± 0.8 g; % weight change ± SEM Day 8 ([1]; 16 mg/kg IP daily + DSS): −1.7 ± 3.0%; Mean weight (g) ± SEM Day 8 ([1]; 16 mg/kg IP daily + DSS): 24.3 ± 1.0 g; % weight change ± SEM Day 9 ([1]; 16 mg/kg IP daily + DSS): −7.5 ± 4.3%; Mean weight (g) ± SEM Day 9 ([1]; 16 mg/kg IP daily + DSS): 22.9 ± 1.4 g; % of normal length ([1]; 16 mg/kg IP daily + DSS): 70.2%; Colon shortening inhib. % ([1]; 16 mg/kg IP daily + DSS, listed as 1-(3-hydroxy-4-methoxy-phenyl)-4-methyl-5-ethyl-7,8-dimethoxy-5H-2,3-benzodiazep): significantly inhibited colonic shortening; Colon shortening inhib. % ([1]; 16 mg/kg IP daily + DSS, listed as 1-(3-hydroxy-4-methoxyphenyl)-4-methyl-5-ethyl-7,8-dimethoxy-5H-2,3-benzodiazepi): 32%; Colon shortening inhib. % ([1]; 32 mg/kg IP daily + DSS): 14%; Mean colon length CM ± SEM ([1]; 32 mg/kg IP daily + DSS): 7.9 ± 0.08 CM; Mean DAIWT ± SEM ([1]; 32 mg/kg IP daily + DSS): 2.56 ± 0.27; Mean weight (g) ± SEM Day 0 ([1]; 32 mg/kg IP daily + DSS): 24.8 ± 0.2 g; % weight change ± SEM Day 7 ([1]; 32 mg/kg IP daily + DSS): −2.5 ± 1.7%; Mean weight (g) ± SEM Day 7 ([1]; 32 mg/kg IP daily + DSS): 24.1 ± 0.5 g; % weight change ± SEM Day 8 ([1]; 32 mg/kg IP daily + DSS): −9.1 ± 2.6%; Mean weight (g) ± SEM Day 8 ([1]; 32 mg/kg IP daily + DSS): 22.5 ± 0.7 g; % weight change ± SEM Day 9 ([1]; 32 mg/kg IP daily + DSS): −15.7 ± 4.1%; Mean weight (g) ± SEM Day 9 ([1]; 32 mg/kg IP daily + DSS): 20.9 ± 1.0 g; % of normal length ([1]; 32 mg/kg IP daily + DSS): 62.3%; Mean DAI ± SEM ([1]; 32 mg/kg IP daily + DSS): 2.67 ± 0.36; Colon shortening inhib. % ([1]; 64 mg/kg IP daily + DSS): 37%; Mean colon length CM ± SEM ([1]; 64 mg/kg IP daily + DSS): 9.2 ± 0.33 CM; Mean DAIWT ± SEM ([1]; 64 mg/kg IP daily + DSS): 2.00 ± 0.45; Mean weight (g) ± SEM Day 0 ([1]; 64 mg/kg IP daily + DSS): 23.7 ± 0.2 g; % weight change ± SEM Day 7 ([1]; 64 mg/kg IP daily + DSS): −2.7 ± 2.8%; Mean weight (g) ± SEM Day 7 ([1]; 64 mg/kg IP daily + DSS): 23.0 ± 0.6 g; % weight change ± SEM Day 8 ([1]; 64 mg/kg IP daily + DSS): −4.8 ± 4.3%; Mean weight (g) ± SEM Day 8 ([1]; 64 mg/kg IP daily + DSS): 22.5 ± 0.9 g; % weight change ± SEM Day 9 ([1]; 64 mg/kg IP daily + DSS): −9.7 ± 4.9%; Mean weight (g) ± SEM Day 9 ([1]; 64 mg/kg IP daily + DSS): 21.3 ± 1.1 g; % of normal length ([1]; 64 mg/kg IP daily + DSS): 72.5%; Mean DAI ± SEM ([1]; 64 mg/kg IP daily + DSS): 2.06 ± 0.48; weight loss as compared to the negative controls ([1]; test compound groups (64, 32, 16 mg/kg) + DSS): no observed significant difference; inhibition at 10 µM [3]: 64%

**Q.** With `CCC1C(C)=NN=C(c2ccc(OC)c(OC)c2)c2cc(OC)c(O)cc21` (stereo not drawn) [Compound 1, 1-(3,4-dimethoxyphenyl)-4-methyl-5-ethyl-7-hydroxy-8-methoxy-5H-2,3-benzodiazepine] as the molecule, how does the inhibition of aggression [4] read?
**A.** 0%

**Q.** What about the inhibition of muricide [5] of the same molecule?
**A.** 20%

**Q.** What about the anti-noradrenergic effects [6] of the same molecule?
**A.** no effect

**Q.** For `CCC1C(C)=NN=C(c2ccc(OC)c(OC)c2)c2cc(O)c(OC)cc21` (stereo not drawn) [Compound 2, 1-(3,4-dimethoxyphenyl)-4-methyl-5-ethyl-7-methoxy-8-hydroxy-5H-2,3-benzodiazepine], which inhibition at 10 µM [3] is on record?
**A.** 36%

**Q.** With `CCC1C(C)=NN=C(c2ccc(OC)c(OC)c2)c2cc(OC)c(OC)cc21` (stereo not drawn) [tofisopam] as the molecule, how does the “interaction with central BZ receptors” value [7] read?
**A.** does not interact

**Q.** And the “binding to peripheral BZ receptors” value [8]?
**A.** binds only weakly

**Q.** For `CCC1C(C)=NN=C(c2ccc(O)c(OC)c2)c2cc(OC)c(O)cc21` (stereo not drawn) [Compound 5, 1-(3-methoxy-4-hydroxyphenyl)-4-methyl-5-ethyl-7-hydroxy-8-methoxy-5H-2,3-benzodiazepine], which inhibition of aggression [4] is on record?
**A.** 28.6%

**Q.** And the “LTB4 % inhib @ 10 μm” value [3]?
**A.** inactive

**Q.** What about the inhibition of muricide [5] of the same molecule?
**A.** 20%

**Q.** And the anti-noradrenergic effects [6]?
**A.** measurable activity

**Q.** For Pinane-thromboxane, which Ki [9] is on record?
**A.** 0.149 µM

**Q.** For `CCC1C(C)=NN=C(c2ccc(OC)c(O)c2)c2cc(OC)c(O)cc21` (stereo not drawn) [Compound 6, 1-(3-hydroxy-4-methoxyphenyl)-4-methyl-5-ethyl-7-hydroxy-8-methoxy-5H-2,3-benzodiazepine], which “LTB4 % inhib @ 10 μm” value [3] is on record?
**A.** inactive

**Q.** For `CCC1C(C)=NN=C(c2ccc(O)c(OC)c2)c2cc(OC)c(OC)cc21` (stereo not drawn) [Compound 3, 1-(3-methoxy-4-hydroxyphenyl)-4-methyl-5-ethyl-7,8-dimethoxy-5H-2,3-benzodiazepine], which inhibition of aggression [4] is on record?
**A.** 0%

**Q.** And the inhibition at 10 µM [3]?
**A.** 16.8%

**Q.** And the inhibition of muricide [5]?
**A.** 0%

**Q.** And the narcosis-potentiating activity [10]?
**A.** demonstrate narcosis-potentiating activity

**Q.** What about the anti-noradrenergic effects [6] of the same molecule?
**A.** measurable activity
